Measurements: US10597388B2, “Pyridazinone herbicides” (FMC CORPORATION, priority 2014, dated 2020)

What was measured:
Assay in all cases: Test D controlled growth environment herbicide test, pre- and postemergence
Format in all cases: in vivo
[1] = system: canarygrass (Phalaris minor)
Procedure, shortened: (§1)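 Rating is visual, 0–100 scale (100 = complete control), made against untreated plants 14–21 d after treatment in controlled growth conditions. Postemergence sprays went onto 1- to 4-leaf plants in peat medium; preemergence sprays onto silt loam after sowing; formulation included a surfactant.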

[2] = system: ryegrass, Italian (Italian ryegrass, Lolium multiflorum)
Procedure, shortened: as §1

[3] = system: blackgrass (Alopecurus myosuroides)
Procedure, shortened: as §1

[4] = system: bluegrass (annual bluegrass, Poa annua)
Procedure, shortened: as §1

[5] = system: pigweed (Amaranthus retroflexus)
Procedure, shortened: as §1

[6] = system: chamomile (scentless chamomile, Matricaria inodora)
Procedure, shortened: as §1

[7] = system: field violet (Viola arvensis)
Procedure, shortened: as §1

[8] = system: wheat, spring (spring wheat, Triticum aestivum)
Procedure, shortened: as §1

[9] = system: foxtail, green (green foxtail, Setaria viridis)
Procedure, shortened: as §1

[10] = system: barley, spring (spring barley, Hordeum vulgare)
Procedure, shortened: as §1

[11] = system: oat, wild (wild oat, Avena fatua)
Procedure, shortened: as §1

[12] = system: buckwheat, wild (wild buckwheat, Polygonum convolvulus)
Procedure, shortened: as §1

[13] = system: radish, wild (wild radish, Raphanus raphanistrum)
Procedure, shortened: as §1

[14] = Postemergence, 31 g ai/ha, scale 0 to 100 (0 no effect, 100 complete control)
[15] = Postemergence, 125 g ai/ha, visual rating on scale 0 (no effect) to 100 (complete control), 14 to 21 d
[16] = Postemergence, 250 g ai/ha, scale 0 to 100 (0 no effect, 100 complete control)
[17] = Preemergence, 62 g ai/ha, scale 0 to 100 (0 no effect, 100 complete control)
[18] = Preemergence, 125 g ai/ha, scale 0 to 100 (0 no effect, 100 complete control)
[19] = Preemergence, 250 g ai/ha, scale 0 to 100 (0 no effect, 100 complete control)
[20] = postemergence, 62 g ai/ha, scale 0 to 100, 0 no effect, 100 complete control

Structure (SMILES): Cc1ccc2sc(C)c(-c3c(O)c(C)nn(C)c3=O)c2c1 [Compound 1, 4-(2,5-dimethylbenzo[b]thien-3-yl)-5-hydroxy-2,6-dimethyl-3(2H)-pyridazinone]
- Canarygrass plant response rating [1, 14]: 20
- Plant response rating, Canarygrass [1, 15]: 50
- Plant response rating, Canarygrass [1, 16]: 70
- Plant response rating (scale of 0 to 100), Canarygrass ([1]; Preemergence, 31 g ai/ha): 40
- Plant response rating, Canarygrass [1, 17]: 60
- Plant response rating, Canarygrass [1, 18]: 85
- Plant response rating, Canarygrass [1, 19]: 90
- Plant response rating, Canarygrass [1, 20]: 35
- Ryegrass, Italian plant response rating [2, 14]: 65
- Plant response rating, Ryegrass, Italian [2, 15]: 85
- Plant response rating, Ryegrass, Italian [2, 16]: 85
- Plant response rating (scale of 0 to 100), Ryegrass, Italian ([2]; Preemergence, 31 g ai/ha): 100
- Plant response rating, Ryegrass, Italian [2, 17]: 100
- Plant response rating, Ryegrass, Italian [2, 18]: 100
- Plant response rating, Ryegrass, Italian [2, 19]: 100
- Plant response rating, Ryegrass, Italian [2, 20]: 75
- Blackgrass plant response rating [3, 14]: 40
- Plant response rating, Blackgrass [3, 15]: 70
- Plant response rating, Blackgrass [3, 16]: 80
- Plant response rating (scale of 0 to 100), Blackgrass ([3]; Preemergence, 31 g ai/ha): 35
- Plant response rating, Blackgrass [3, 17]: 70
- Plant response rating, Blackgrass [3, 18]: 85
- Blackgrass plant response rating [3, 19]: 90
- Plant response rating, Blackgrass [3, 20]: 50
- Bluegrass plant response rating [4, 14]: 0
- Plant response rating, Bluegrass [4, 15]: 5
- Plant response rating, Bluegrass [4, 16]: 5
- Plant response rating (scale of 0 to 100), Bluegrass ([4]; Preemergence, 31 g ai/ha): 5
- Plant response rating, Bluegrass [4, 17]: 15
- Plant response rating, Bluegrass [4, 18]: 35
- Bluegrass plant response rating [4, 19]: 50
- Plant response rating, Bluegrass [4, 20]: 5
- Pigweed plant response rating [5, 14]: 80
- Plant response rating, Pigweed [5, 15]: 100
- Plant response rating, Pigweed [5, 16]: 100
- Plant response rating (scale of 0 to 100), Pigweed ([5]; Preemergence, 31 g ai/ha): 70
- Plant response rating, Pigweed [5, 17]: 100
- Plant response rating, Pigweed [5, 18]: 100
- Plant response rating, Pigweed [5, 19]: 100
- Plant response rating, Pigweed [5, 20]: 90
- Chamomile plant response rating [6, 14]: 65
- Plant response rating, Chamomile [6, 15]: 85
- Plant response rating, Chamomile [6, 16]: 100
- Plant response rating (scale of 0 to 100), Chamomile ([6]; Preemergence, 31 g ai/ha): 95
- Plant response rating, Chamomile [6, 17]: 95
- Plant response rating, Chamomile [6, 18]: 95
- Plant response rating, Chamomile [6, 19]: 90
- Plant response rating, Chamomile [6, 20]: 75
- Field Violet plant response rating [7, 14]: 85
- Plant response rating, Field Violet [7, 15]: 90
- Plant response rating, Field Violet [7, 16]: 95
- Plant response rating (scale of 0 to 100), Field Violet ([7]; Preemergence, 31 g ai/ha): 95
- Plant response rating, Field Violet [7, 17]: 100
- Plant response rating, Field Violet [7, 18]: 100
- Plant response rating, Field Violet [7, 19]: 100
- Plant response rating, Field Violet [7, 20]: 75
- Wheat, Spring plant response rating [8, 14]: 0
- Plant response rating, Wheat, Spring [8, 15]: 10
- Plant response rating, Wheat, Spring [8, 16]: 15
- Plant response rating (scale of 0 to 100), Wheat, Spring ([8]; Preemergence, 31 g ai/ha): 0
- Plant response rating, Wheat, Spring [8, 17]: 0
- Plant response rating, Wheat, Spring [8, 18]: 0
- Plant response rating, Wheat, Spring [8, 19]: 10
- Plant response rating, Wheat, Spring [8, 20]: 0
- Foxtail, Green plant response rating [9, 14]: 50
- Plant response rating, Foxtail, Green [9, 15]: 75
- Plant response rating, Foxtail, Green [9, 16]: 85
- Plant response rating (scale of 0 to 100), Foxtail, Green ([9]; Preemergence, 31 g ai/ha): 10
- Plant response rating, Foxtail, Green [9, 17]: 15
- Plant response rating, Foxtail, Green [9, 18]: 75
- Plant response rating, Foxtail, Green [9, 19]: 100
- Plant response rating, Foxtail, Green [9, 20]: 65
- Plant response rating, Barley, Spring [10, 14]: 0
- Plant response rating, Barley, Spring [10, 15]: 5
- Plant response rating, Barley, Spring [10, 16]: 10
- Plant response rating (scale of 0 to 100), Barley, Spring ([10]; Preemergence, 31 g ai/ha): 0
- Plant response rating, Barley, Spring [10, 17]: 0
- Plant response rating, Barley, Spring [10, 18]: 10
- Barley, Spring plant response rating [10, 19]: 15
- Plant response rating, Barley, Spring [10, 20]: 5
- Oat, Wild plant response rating [11, 14]: 40
- Plant response rating, Oat, Wild [11, 15]: 80
- Plant response rating, Oat, Wild [11, 16]: 95
- Plant response rating (scale of 0 to 100), Oat, Wild ([11]; Preemergence, 31 g ai/ha): 75
- Plant response rating, Oat, Wild [11, 17]: 70
- Plant response rating, Oat, Wild [11, 18]: 95
- Plant response rating, Oat, Wild [11, 19]: 100
- Plant response rating, Oat, Wild [11, 20]: 70
- Buckwheat, Wild plant response rating [12, 14]: 70
- Plant response rating, Buckwheat, Wild [12, 15]: 100
- Plant response rating, Buckwheat, Wild [12, 16]: 100
- Plant response rating (scale of 0 to 100), Buckwheat, Wild ([12]; Preemergence, 31 g ai/ha): 5
- Plant response rating, Buckwheat, Wild [12, 17]: 10
- Plant response rating, Buckwheat, Wild [12, 18]: 65
- Plant response rating, Buckwheat, Wild [12, 19]: 100
- Plant response rating, Buckwheat, Wild [12, 20]: 75
- Radish, Wild plant response rating [13, 14]: 10
- Plant response rating, Radish, Wild [13, 15]: 30
- Plant response rating, Radish, Wild [13, 16]: 60
- Plant response rating (scale of 0 to 100), Radish, Wild ([13]; Preemergence, 31 g ai/ha): 0
- Plant response rating, Radish, Wild [13, 17]: 0
- Plant response rating, Radish, Wild [13, 18]: 15
- Plant response rating, Radish, Wild [13, 19]: 100
- Plant response rating, Radish, Wild [13, 20]: 20
